Data: patent US7217730B2, “Method for the use of pyranoindole derivatives to treat infection with Hepatitis C virus” (Wyeth, priority 2002, dated 2007)
pIC50: −log10 of the molar value.

What was measured:
[1] = molecular target: BB7 (RNA-dependent RNA polymerase hepatitis C virus protein sequence derived from HCV replicon) (Hepatitis C virus genotype 1b, UniProt Q9WMX2); assay: Hepatitis C polymerase inhibition, BB7 sequence; type: biochemical; details: Table 1B
[2] = molecular target: T1, NS5B from the BK strain (genotype 1b) (Hepatitis C virus genotype 1b, UniProt P26663); assay: Hepatitis C polymerase inhibition, NS5B BK strain, 33P-GTP filter assay; type: biochemical; details: Table 1B; NS5B BK strain; read-out: BK IC50
T1 construct: NS5B from the BK strain (genotype 1b) is expressed in E. coli as a protein in which the 21 C-terminal amino acids are replaced; made in house; host or cells: E. coli
T1 sequence (P26663 2420-2989): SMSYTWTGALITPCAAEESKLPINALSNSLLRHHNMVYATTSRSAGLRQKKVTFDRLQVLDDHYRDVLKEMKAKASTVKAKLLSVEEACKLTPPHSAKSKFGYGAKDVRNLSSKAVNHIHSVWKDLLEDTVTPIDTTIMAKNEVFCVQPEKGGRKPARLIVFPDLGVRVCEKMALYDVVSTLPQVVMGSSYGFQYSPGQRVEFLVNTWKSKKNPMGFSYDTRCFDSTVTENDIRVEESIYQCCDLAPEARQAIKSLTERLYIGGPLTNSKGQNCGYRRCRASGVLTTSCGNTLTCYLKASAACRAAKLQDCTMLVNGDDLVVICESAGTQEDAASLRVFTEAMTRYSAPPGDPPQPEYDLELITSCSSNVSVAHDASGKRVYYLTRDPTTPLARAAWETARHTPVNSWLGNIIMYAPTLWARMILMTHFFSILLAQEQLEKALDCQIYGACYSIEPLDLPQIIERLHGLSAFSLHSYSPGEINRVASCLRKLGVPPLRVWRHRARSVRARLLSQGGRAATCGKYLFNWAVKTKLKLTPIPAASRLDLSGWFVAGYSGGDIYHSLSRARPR
Method in brief: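 E. coli-expressed NS5B (BK, genotype 1b) with the 21 C-terminal residues replaced by a linker-His6 tag was preincubated with compound for 15 min at room temperature. It then extended a hairpin-primed heteropolymeric RNA (~3 nM, ~760 nt product) with α-[33P]-GTP for 2 h at 22–25° C. The reaction was stopped with EDTA, and incorporated label was counted on filters.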

Chain of BB7 (RNA-dependent RNA polymerase hepatitis C virus protein sequence derived from HCV replicon) (Q9WMX2 2420-3010): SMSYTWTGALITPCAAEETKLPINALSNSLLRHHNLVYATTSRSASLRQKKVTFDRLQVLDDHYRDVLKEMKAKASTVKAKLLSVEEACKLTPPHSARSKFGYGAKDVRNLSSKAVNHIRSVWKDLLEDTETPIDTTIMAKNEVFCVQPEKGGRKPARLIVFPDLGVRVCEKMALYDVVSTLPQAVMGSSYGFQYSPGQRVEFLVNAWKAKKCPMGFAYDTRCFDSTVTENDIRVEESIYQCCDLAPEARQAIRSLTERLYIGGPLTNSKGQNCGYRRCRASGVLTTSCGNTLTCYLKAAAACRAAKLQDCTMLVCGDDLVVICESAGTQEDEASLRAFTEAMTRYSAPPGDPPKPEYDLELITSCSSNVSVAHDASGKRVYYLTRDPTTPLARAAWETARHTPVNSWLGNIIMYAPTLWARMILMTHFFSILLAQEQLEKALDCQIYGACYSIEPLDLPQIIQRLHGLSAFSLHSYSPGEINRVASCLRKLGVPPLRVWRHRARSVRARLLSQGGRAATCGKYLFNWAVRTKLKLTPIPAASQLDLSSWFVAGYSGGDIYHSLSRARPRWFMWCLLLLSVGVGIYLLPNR

| SMILES | pIC50 [1] | pIC50 [2] |
| --- | --- | --- |
| O=C(O)CC1(C2CCC2)OCCc2c1[nH]c1ccc(Cl)c(Cl)c21 (stereo not drawn) [Example 235, (5,6-dichloro-1-cyclobutyl-1,3,4,9-tetrahydropyrano[3,4-b]indol-1-yl)acetic acid] | 5.27 | 5.28 |
| O=C(O)CC1(C2CCCC2)OCCc2c1[nH]c1ccc(Cl)c(Cl)c21 (stereo not drawn) [Example 236, (5,6-dichloro-1-cyclopentyl-1,3,4,9-tetrahydropyrano[3,4-b]indol-1-yl)acetic acid] | 5.02 | 5.00 |
| COCC1(CC(=O)O)OCCc2c1[nH]c1ccc(Cl)c(Cl)c21 (stereo not drawn) [Example 237, (5,6-Dichloro-1-methoxymethyl-1,3,4,9-tetrahydropyrano[3,4-b]indol-1-yl)acetic acid] | < 4.62 | < 4.57 |
| COCCC1(CC(=O)O)OCCc2c1[nH]c1ccc(Cl)c(Cl)c21 (stereo not drawn) [Example 238, [5,6-dichloro-1-(2-methoxyethyl)-1,3,4,9-tetrahydropyrano[3,4-b]indol-1-yl]acetic acid] | < 4.52 | 4.72 |
| O=C(O)CC1(CCC(F)(F)F)OCCc2c1[nH]c1ccc(Cl)c(Cl)c21 (stereo not drawn) [Example 239, [5,6-dichloro-1-(3,3,3-trifluoropropyl)-1,3,4,9-tetrahydropyrano[3,4-b]indol-1-yl]acetic acid] | 5.27 | 5.34 |
| CCCC1(CC(=O)O)OCCc2c1[nH]c1cc(Cl)c(Cl)cc21 (stereo not drawn) [Example 240, (6,7-dichloro-1-propyl-1,3,4,9-tetrahydropyrano[3,4-b]indol-1-yl)acetic acid] | 4.74 | 5.05 |
| CCC1(CC(=O)O)OCCc2c1[nH]c1c(Cl)ccc(Cl)c21 (stereo not drawn) [Example 243, (5,8-dichloro-1-ethyl-1,3,4,9-tetrahydropyrano[3,4-b]indol-1-yl)acetic acid] | 5.00 | 5.20 |
| N#CCCCC1(CC(=O)O)OCCc2c1[nH]c1c(Cl)ccc(Cl)c21 (stereo not drawn) [Example 244, [5,8-dichloro-1-(3-cyanopropyl)-1,3,4,9-tetrahydropyrano[3,4-b]indol-1-yl)acetic acid] | 5.74 | 6.52 |
| O=C(O)CC1(CCC(F)(F)F)OCCc2c1[nH]c1c(Cl)ccc(Cl)c21 (stereo not drawn) [Example 245, [5,8-dichloro-1-(3,3,3-trifluoropropyl)-1,3,4,9-tetrahydropyrano[3,4-b]indol-1-yl]acetic acid] | 6.13 | 6.40 |
| COCC1(CC(=O)O)OCCc2c1[nH]c1c(Cl)ccc(Cl)c21 (stereo not drawn) [Example 246, (5,8-dichloro-1-methoxymethyl-1,3,4,9-tetrahydropyrano[3,4-b]indol-1-yl)acetic acid] | < 4.52 | < 4.52 |
| COCCC1(CC(=O)O)OCCc2c1[nH]c1c(Cl)ccc(Cl)c21 (stereo not drawn) [Example 247, [5,8-dichloro-1-(2-methoxyethyl)-1,3,4,9-tetrahydropyrano[3,4-b]indol-1-yl]acetic acid] | 4.74 | < 4.62 |
| CCOCC1(CC(=O)O)OCCc2c1[nH]c1c(Cl)ccc(Cl)c21 (stereo not drawn) [Example 248, (5,8-dichloro-1-ethoxymethyl-1,3,4,9-tetrahydropyrano[3,4-b]indol-1-yl)acetic acid] | < 4.52 | < 4.52 |
| CSCC1(CC(=O)O)OCCc2c1[nH]c1c(Cl)ccc(Cl)c21 (stereo not drawn) [Example 249, (5,8-dichloro-1-methylthiomethyl-1,3,4,9-tetrahydropyrano[3,4-b]indol-1-yl)acetic acid] | 4.92 | 5.15 |
| CCSCC1(CC(=O)O)OCCc2c1[nH]c1c(Cl)ccc(Cl)c21 (stereo not drawn) [Example 250, (5,8-dichloro-1-ethylthiomethyl-1,3,4,9-tetrahydropyrano[3,4-b]indol-1-yl)acetic acid] | 5.41 | 5.43 |
| C=CCCC1(CC(=O)O)OCCc2c1[nH]c1c(Cl)ccc(Cl)c21 (stereo not drawn) [Example 251, [5,8-dichloro-1-(3-butenyl)-1,3,4,9-tetrahydropyrano[3,4-b]indol-1-yl]acetic acid] | 5.46 | 5.77 |
